Assay: Henry solubility constant Hcp at 298.15 K (mol/(m3 Pa))
Conditions: reference: Oliver (1985)

With `Clc1cccc(Cl)c1Cl` [1,2,3-trichlorobenzene] the “Henry solubility constant Hcp” value was 0.011.
With `Clc1cc(Cl)c(Cl)cc1Cl` [1,2,4,5-tetrachlorobenzene] the “Henry solubility constant Hcp” value was 0.0099.
For `Clc1cc(Cl)cc(Cl)c1` [1,3,5-trichlorobenzene], the “Henry solubility constant Hcp” value was 0.0052.
For `Clc1cccc(Cl)c1` [1,3-dichlorobenzene], the “Henry solubility constant Hcp” value was 0.0055.
For `Clc1ccc(Cl)cc1` [1,4-dichlorobenzene], the “Henry solubility constant Hcp” value was 0.0066.
In the case of `Clc1cccc(-c2cccc(Cl)c2Cl)c1Cl` [2,2',3,3'-tetrachlorobiphenyl], the “Henry solubility constant Hcp” value is reported as 0.082.
With `Clc1cc(Cl)c(-c2cc(Cl)c(Cl)cc2Cl)cc1Cl` [2,2',4,4',5,5'-hexachlorobiphenyl] the “Henry solubility constant Hcp” value was 0.16.
For `Clc1ccc(Cl)c(-c2cc(Cl)c(Cl)cc2Cl)c1` [2,2',4,5,5'-pentachlorobiphenyl], the “Henry solubility constant Hcp” value was 0.14.
For `Clc1ccc(Cl)c(-c2cc(Cl)ccc2Cl)c1` [2,2',5,5'-tetrachlorobiphenyl], the “Henry solubility constant Hcp” value was 0.082.
For `Clc1ccc(Cl)c(-c2ccccc2Cl)c1` [2,2',5-trichlorobiphenyl], the “Henry solubility constant Hcp” value was 0.049.
For `Cc1c(Cl)ccc(Cl)c1Cl` [2,3,6-trichloromethylbenzene], the “Henry solubility constant Hcp” value was 0.0066.
For `Cc1cc(Cl)c(Cl)cc1Cl` [2,4,5-trichloromethylbenzene], the “Henry solubility constant Hcp” value was 0.0066.
In the case of `ClC(Cl)=C(Cl)C(Cl)=C(Cl)Cl` [hexachlorobutadiene], the “Henry solubility constant Hcp” value is reported as 0.0023.
With `ClC(Cl)=C(Cl)c1c(Cl)c(Cl)c(Cl)c(Cl)c1Cl` [octachlorostyrene] the “Henry solubility constant Hcp” value was 0.076.
For `Cc1c(Cl)c(Cl)c(Cl)c(Cl)c1Cl` [pentachloromethylbenzene], the “Henry solubility constant Hcp” value was 0.013.
